# What was measured:
# intracranial A375 tumors = assay: Immunohistochemical analysis of vemurafenib‐resistant A375 melanoma brain metastases; format: in vivo; conditions: Abcb1a/b;Abcg2−/− mice, 10 mg·kg^−1 × 10d, vs untreated
# Method: Mouse brains were fixed in 4% (v/v) formaldehyde. Alternatively, whole heads without skin were fixed in 4% (v/v) formaldehyde and 5% (v/v) glacial acetic acid and subsequently decalcified using a 6.5% (v/v) formic acid solution for 3 days at 37 °C. After fixation, samples were paraffin embedded and sliced into 4 μm thick sections. Whole head slides were stained for hematoxylin and eosin (H&E), human vimentin (1 : 4000; M0725; DakoCytomation, Glostrup, Denmark), P‐gp (1 : 200; 13978; Cell Signaling Technology, Danvers, MA, USA), BCRP (1 : 400; ab24115; Abcam, Cambridge, UK), and CD31 (1 : 200; ab28364; Abcam). Vessel positivity for P‐gp, BCRP, and CD31, as quantified in Fig. 1B, was manually scored in at least 200 vessels per staining. Specific antibody staining for P‐gp and BCRP was validated previously using whole head slices from Abcb1a/b;Abcg2 ^ −/− mice (fig. S2 from).
# Brain slides were stained for H&E, PDGFRβ (1 : 50; 3169; Cell Signaling Technology), phospho‐MET (1 : 150; 3077; Cell Signaling Technology), MET (1 : 100; AF527; R&D Systems, Minneapolis, MN, USA), phospho‐IGF1R (1 : 40 000; sc‐101703; Santa Cruz Biotechnology, Dallas, TX, USA), AXL (1 : 100; 8661; Cell Signaling Technology), NGFR (1 : 400; 8238; Cell Signaling Technology), phospho‐EGFR (1 : 600; ab40815; Abcam), EGFR (1 : 200; ab52894; Abcam), BRAF^V600E (1 : 100; E19290; SpringBioscience, Pleasanton, CA, USA), phospho‐ERK1/2 (1 : 200; 4370; Cell Signaling Technology), phospho‐AKT (1 : 8000; 4060; Cell Signaling Technology), phospho‐S6 (1 : 1000; 2211; Cell Signaling Technology), phospho‐4EBP1 (1 : 100; 2855; Cell Signaling Technology), 4EBP1 (1 : 1200; 9644; Cell Signaling Technology), SOX10 (1 : 100; sc‐17342; Santa Cruz Biotechnology), MITF (1 : 100; 284 M‐94; Cell Marque, Rocklin, CA, USA), and Ki‐67 (1 : 3000; ab15580; Abcam).
# [1] = Vemurafenib distribution in plasma, brain regions and tumor of A375 tumor‐bearing mice (LC–MS/MS); format: in vivo; conditions: for discrepancy in plasma concentration vs the previous pharmacokinetic experiment: 4 h after third daily administration
# Method: To study its distribution in tumor‐bearing mice, vemurafenib was administered p.o. to tumor‐bearing mice for 3 days at a dose of 10 or 25 mg·kg^−1 q.d., starting 14 days after intracranial tumor cell injection. One group of mice received 10 mg·kg^−1 vemurafenib 4 h after administration of 100 mg·kg^−1 elacridar. Four hours after the third administration, blood was collected by heart puncture, and whole brains were dissected and divided into four parts: ipsilateral hemisphere (tissue from the tumor‐bearing hemisphere that was free of macroscopic tumor tissue), contralateral hemisphere (the tumor‐free hemisphere), cerebellum and macroscopic tumor. In a follow‐up experiment, tissues and plasma were collected 4 h after 5 and 10 consecutive daily p.o. administrations of vemurafenib. All tissues were weighed and subsequently homogenized using a FastPrep®‐24 (MP‐Bio‐medicals, Irvine, CA, USA) in 3 mL 1% (w/v) bovine serum albumin. All tissue samples were prepared for LC–MS/MS analysis as described above for plasma samples.
# The LC–MS/MS system consisted of an API 3000 mass spectrometer (Sciex, Framingham, MA, USA) coupled to an UltiMate 3000 LC System (Dionex, Sunnyvale, CA, USA). Samples were separated using a ZORBAX Extend‐C18 column (Agilent, Santa Clara, CA, USA), preceded by a Securityguard C18 precolumn (Phenomenex, Utrecht, the Netherlands). Elution was done using a mixture of mobile phase A (0.1% formic acid in water (v/v)) and mobile phase B (methanol) in a 5 min gradient from 20% to 95% B, followed by 95% B that was maintained for 3 min and then re‐equilibrated at 20% B. Multiple reaction monitoring parameters were 490.2/383.1 (vemurafenib) and 496.2/389.1 (vemurafenib‐^13C6). System control and data analysis were done using ANALYST ® 1.6.2 software (AB Sciex, Foster City, CA, USA).
# [2] = oral, WT mice; cited from earlier work
# [3] = parameters: method as in PMID 25933211; conditions: clinical study; cited from earlier work
smiles,measurement,setting,value
CCCS(=O)(=O)Nc1ccc(F)c(C(=O)c2c[nH]c3ncc(-c4ccc(Cl)cc4)cc23)c1F [vemurafenib],PDGFRβ expression (immunohistochemistry),intracranial A375 tumors,appeared to be diminished
same,proliferation marker Ki‐67 (immunohistochemistry),intracranial A375 tumors,similarly unaffected
same,immunohistochemical staining of phospho‐S6 and phospho‐4EBP1,intracranial A375 tumors; n = 2 per group,profoundly reduced
same,levels in tumor core of WT mice relative to Abcb1a/b;Abcg2−/− mice,[1]; 4 h after third daily oral administration,approximately half
same,"concentration in tumor regions, 10 days vs 5 days of treatment",[1]; Abcb1a/b;Abcg2−/− mice and WT mice also receiving elacridar,even higher at the later time point
same,Kp at 4 h,"[1]; FVB nude, mouse, oral, 25 mg·kg^−1, WT mice, stated as very close to the total blood volume of the murine brain, read-out: tissue–plasma ratios in normal brain regions",~0.02
same,penetration in normal brain regions,"[1]; WT mice, 4 h after third daily oral administration",negligible
same,discrepancy in plasma concentration vs the previous pharmacokinetic experiment,[1]; tumor‐bearing Abcb1a/b;Abcg2−/− mice,twofold
same,discrepancy in plasma concentration vs the previous pharmacokinetic experiment,[1]; tumor‐bearing WT mice that also received elacridar,no difference
same,"plasma concentration, long‐term (10 days) vs short‐term (5 days) treated","[1]; tumor‐bearing WT mice, 25 mg·kg^−1",considerably lower
same,"plasma concentration relative to the previous pharmacokinetic experiment (single dose, tumor‐free)","[1]; tumor‐bearing WT mice, 25 mg·kg^−1, 4 h after third daily administration",around one‐fourth
same,brain–plasma ratio,[2],around 0.02
same,concentration in cerebrospinal fluid (CSF) as share of the plasma concentration,[3],< 1%
